Test [1] concerns the target T1, mCherry-SERT-expressing HEK293 cells (Homo sapiens, UniProt P31645).
T1 construct: expressed in transfected cells
Put plainly: confocal microscopy of membrane staining. The class given is cell-based. The following applies: for membrane staining of mCherry-SERT HEK293 cells: 20 nM. The procedure:
Prior to imaging, cell culture medium was replaced with pre-warmed KHB. HEK293 cells expressing mCherry-SERT were imaged using a Nikon A1R laser scanning confocal microscope equipped with a GaAsP detector, using a 60× oil-immersion objective. PyrAtes dissolved in DMSO were diluted in KHB (0.1% v/v) to make solutions with the desired final concentration (20 nM, 100 nM), which were added to each well containing the cells. To test specific binding, cells were pre-incubated with 10 – 30 µM paroxetine for 10 minutes. PyrAtes were excited using a 405 nm laser, and its fluorescent signals collected using 525/50 nm emission filters; mCherry was excited using a 561 nm laser, and fluorescence was collected using 595/50 nm emission filters. Images were captured prior to and at specific time points after addition of the PyrAte compounds using NIS-Elements software. […]
Cells were voltage-clamped (−60 mV) and continuously superfused with a physiological external solution containing 140mM NaCl, 2.5 mM CaCl2,2mM MgCl2, 20mM glucose and 10mM HEPES, pH= 7.4. Micropipettes were made from borosilicate glass capillaries with a resistance ranging from 2.5 – 6 MΩ using a P-97 micropipette puller (Sutter Instrument), which were then filled with an internal solution containing 133mM K-gluconate, 6mM NaCl, 1mM CaCl2, 0.7 mM MgCl2, 10mM HEPES, 10mM EGTA, pH= 7.2. For the measurements we used an amplifier […] and pClamp 11.2 software (MDS Analytical Technologies, Sunnyvale, CA, USA). The compounds were diluted the day of the experiments in external solutions and applied using a DAD-12 superfusion system with a 8-tube perfusion manifold (ALA Scientific Instruments, Farmingdale, NY, USA), guaranteeing rapid solution exchange. Current traces were filtered at 1 kHz and digitized at 10 kHz using a Digidata 1550 (MDS Analytical Technologies). […]

The target of test [2] is T2, YhDAT (Homo sapiens, UniProt Q01959).
T2 construct: expressed in transfected cells
Put plainly: radioligand uptake inhibition assay ([3H]DA). It counts as cell-based. The following applies: for IC50: HEK293 stably expressing YhDAT, 100 nM [3H]DA, mean and SD, N = 3-6, read-out: IC50, uptake inhibition at DAT (YhDAT); for Hill coefficient nH at DAT: uptake inhibition curve. As for the experimental part: 1. Biological characterization
1.1. Experimental methods
Buffer and solution compositions (in mM) are as follows:
Krebs-HEPES buffer (KHB): 120 NaCl, 3 KCl, 2 CaCl2, 2 MgCl2, 20 glucose, 10 HEPES NaOH, pH = 7.3 – 7.4. […]
10 mM glucose, 1.25 mM NaH2PO4, pH = 7.4 (oxygenated with 95% O2, 5% CO2).
Human embryonic kidney 293 cells (HEK293) stably expressing the mCherry-tagged, YFP-tagged, and GFP-tagged human isoforms of SERT (mCherry-SERT, YhSERT, GhSERT), DAT (YhDAT), NET (hNET), and OCT3 (YhOCT3) were cultured in Dulbecco's modified Eagle's medium (DMEM) with high glucose (4.5 g/L) and l-glutamine (584 mg/L), supplemented with 10% fetal calf serum (FCS), 100 units/mL penicillin and 100 µg/mL streptomycin. The cells were cultured in a humidified atmosphere (37 °C, 5% CO2). Geneticin (50 µg/mL), Blasticidin (6 µg/mL), and Zeocin® (150 µg/mL) were added to maintain the selection pressure for the stable cell lines. Cells were typically seeded 24 hours prior to the experiments.
For uptake inhibition experiments, cells were seeded at 3.6 x 10^4 cells/0.2 mL into 96-well plates coated […]
with poly-d-lysine (PDL). […]
For uptake inhibition experiments, the cell medium was aspirated and the cells were washed once with 0.2 mL/well KHB at room temperature. The cells were pre-incubated with increasing concentrations of the substance of interest, diluted in KHB (0.05 mL/well). The pre-incubation solution was replaced with 0.05 mL/well KHB solution still containing the substance of interest and additionally the tritiated substrate (100 nM [3H]DA for YhDAT; 100 nM [3H]5HT for YhSERT; 20 nM and 50 nM [3H]MPP+ for hNET and YhOCT3), after 6 minutes (YhSERT), 5 minutes (YhDAT, hNET), or 10 minutes (YhOCT3). Substrate uptake was stopped after one minute (for [3H]DA and [3H]5HT), three minutes, or […]
The KHB was aspirated immediately. […] Non-specific uptake was determined in the presence of 30 µM paroxetine (for YhSERT), 50 µM GBR12909 (for YhDAT and hNET), or 100 µM decynium-22 (for YhOCT3). […]
[3H]-imipramine, and increasing concentrations of test compound, for 60 min at 20 – 22 °C. […] The amount of radioactivity in the filters was measured using a Tri-Carb 2800TR liquid scintillation analyzer (PerkinElmer). The Ki was calculated from the measured IC50 using the Cheng-Prusoff equation.
Prior to imaging, cell culture medium was replaced with pre-warmed KHB. […] PyrAtes were excited using a 405 nm laser, and its fluorescent signals collected using 525/50 nm emission filters; mCherry was excited using a 561 nm laser, and fluorescence was collected using 595/50 nm emission filters. […]
5HT-mediated currents were measured at room temperature (20-25°C) using whole-cell patch clamp in HEK293 cells stably expressing SERT. […]

Entries after “also recorded” stand apart in the source; their conditions may differ.

T2 sequence (Q01959 whole entry): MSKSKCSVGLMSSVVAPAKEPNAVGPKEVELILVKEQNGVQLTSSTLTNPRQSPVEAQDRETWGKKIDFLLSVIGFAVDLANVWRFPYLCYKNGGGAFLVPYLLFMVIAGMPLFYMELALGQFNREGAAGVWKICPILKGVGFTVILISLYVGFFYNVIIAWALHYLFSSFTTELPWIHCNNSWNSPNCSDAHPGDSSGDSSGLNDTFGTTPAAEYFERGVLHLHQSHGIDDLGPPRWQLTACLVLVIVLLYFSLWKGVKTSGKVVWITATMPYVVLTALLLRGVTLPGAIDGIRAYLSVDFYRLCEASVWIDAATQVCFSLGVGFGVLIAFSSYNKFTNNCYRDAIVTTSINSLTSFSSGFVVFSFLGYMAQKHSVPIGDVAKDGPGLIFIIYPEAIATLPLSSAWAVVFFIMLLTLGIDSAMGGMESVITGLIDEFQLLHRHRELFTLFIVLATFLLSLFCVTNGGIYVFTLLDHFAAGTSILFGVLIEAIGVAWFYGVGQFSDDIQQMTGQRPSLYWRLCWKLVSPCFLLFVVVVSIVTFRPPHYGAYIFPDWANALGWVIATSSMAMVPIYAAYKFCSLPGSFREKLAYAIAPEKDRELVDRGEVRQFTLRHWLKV
T1 sequence (P31645 whole entry): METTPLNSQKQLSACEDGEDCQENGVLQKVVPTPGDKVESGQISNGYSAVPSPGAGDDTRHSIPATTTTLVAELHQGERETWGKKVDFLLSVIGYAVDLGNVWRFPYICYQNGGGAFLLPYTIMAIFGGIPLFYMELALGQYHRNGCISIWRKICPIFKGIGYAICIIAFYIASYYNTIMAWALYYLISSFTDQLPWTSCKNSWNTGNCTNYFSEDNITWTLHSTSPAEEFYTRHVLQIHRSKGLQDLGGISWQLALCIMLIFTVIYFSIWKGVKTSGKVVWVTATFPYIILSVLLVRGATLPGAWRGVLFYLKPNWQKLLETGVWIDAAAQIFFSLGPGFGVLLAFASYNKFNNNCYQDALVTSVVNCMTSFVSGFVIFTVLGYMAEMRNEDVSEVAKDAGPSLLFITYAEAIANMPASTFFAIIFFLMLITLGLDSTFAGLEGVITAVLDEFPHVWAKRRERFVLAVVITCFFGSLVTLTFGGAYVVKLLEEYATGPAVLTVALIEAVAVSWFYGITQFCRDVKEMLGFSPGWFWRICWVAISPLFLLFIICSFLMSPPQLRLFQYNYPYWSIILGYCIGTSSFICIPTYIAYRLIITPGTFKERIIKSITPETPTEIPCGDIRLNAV

One may read the IC50 as the midpoint of a concentration-inhibition curve. In the case of `CCN(CC)c1ccc(-c2cc[n+]3c(-c4ccccc4)c(N4CCCC4)n(CCCCCCC(=O)NCc4ccc5c(c4)CO[C@@]5(CCCN(C)C)c4ccc(F)cc4)c3c2)cc1` [PYR-C6-CIT, PyrAte-C6-(S)-citalopram], in test [1] (30 min incubation, blocked by 30 μM paroxetine), the “membrane staining of mCherry-SERT HEK293 cells” value was “binds specifically to membrane-expressed SERT; also recorded: SERT-specific membrane staining”. Further, the “staining of mCherry-SERT HEK293 cells” value in test [1] (100 nM) was “mitochondrial staining”. For the same molecule, in test [2], the IC50 came to 2050 nM and the “Hill coefficient nH at DAT” value is listed as −1.5.
In the case of `CCN(CC)c1ccc(-c2cc[n+]3c(-c4ccccc4)c(N4CCCC4)n(CCCC(=O)NCc4ccc5c(c4)CO[C@@]5(CCCN(C)C)c4ccc(F)cc4)c3c2)cc1` [PYR-C3-CIT, PyrAte-C3-(S)-citalopram], in test [1] (60 min incubation, absent with paroxetine), the “membrane staining of mCherry-SERT HEK293 cells” value was “enhanced co-localization of PyrAte and mCherrySERT signals and no internalization; also recorded: SERT-specific membrane staining”. For the same molecule, in test [2], the half-inhibitory concentration (IC50) came out at 3570 nM and the “Hill coefficient nH at DAT” value is −1.3.

Values taken from article PMC11891579, “Fluorescent PyrAte-(S)-citalopram conjugates enable imaging of the serotonin transporter in living tissue” (Chemical Science, 2025).
